In paper PMC5418314, “First-in-human phase I study of SOR-C13, a TRPV6 calcium channel inhibitor, in patients with advanced solid tumors” (Investigational New Drugs, 2017):
Where two headings read alike, the source gives them in different places. Ends that are not written are not given here.

Key:
hERG = hERG (Homo sapiens, UniProt Q12809); assay: hERG channel activity; type: biochemical
[1] = peptide degradation in rat plasma; type: in vitro ADME
[2] = Phase I plasma pharmacokinetics; type: in vivo, human; settings: plasma LC-MS; for AUC(0-t) / Cmax / Tmax: plasma
Method: Blood samples were taken on Days 1, 3, 8 and 10 of Cycle 1 to assess the pharmacokinetic (PK) profile of SOR-C13 at the various doses used. Plasma samples for the IV 20 min infusion were taken at pre-infusion, 5, 15 min after the start of infusion and post-infusion at 2, 5, 10 and 30 min and 1, 4 h. Plasma samples for SOR-C13 analysis for the 90 min infusion were taken pre-infusion, at 5, 15 and 45 min after the start of infusion, and at 2, 5, 10 and 30 min post-infusion. Since the infusion for the majority of patients, and further studies will be IV 90 min only PK data for this infusion time are presented. Validated liquid chromatography-mass spectrometry analysis provided the plasma concentration/time data.

[3] = Cohort 3: 1.375 mg/kg, N = 3, 90-min IV infusion, Cycle 1 Day 8

Chain of hERG (Q12809 whole entry): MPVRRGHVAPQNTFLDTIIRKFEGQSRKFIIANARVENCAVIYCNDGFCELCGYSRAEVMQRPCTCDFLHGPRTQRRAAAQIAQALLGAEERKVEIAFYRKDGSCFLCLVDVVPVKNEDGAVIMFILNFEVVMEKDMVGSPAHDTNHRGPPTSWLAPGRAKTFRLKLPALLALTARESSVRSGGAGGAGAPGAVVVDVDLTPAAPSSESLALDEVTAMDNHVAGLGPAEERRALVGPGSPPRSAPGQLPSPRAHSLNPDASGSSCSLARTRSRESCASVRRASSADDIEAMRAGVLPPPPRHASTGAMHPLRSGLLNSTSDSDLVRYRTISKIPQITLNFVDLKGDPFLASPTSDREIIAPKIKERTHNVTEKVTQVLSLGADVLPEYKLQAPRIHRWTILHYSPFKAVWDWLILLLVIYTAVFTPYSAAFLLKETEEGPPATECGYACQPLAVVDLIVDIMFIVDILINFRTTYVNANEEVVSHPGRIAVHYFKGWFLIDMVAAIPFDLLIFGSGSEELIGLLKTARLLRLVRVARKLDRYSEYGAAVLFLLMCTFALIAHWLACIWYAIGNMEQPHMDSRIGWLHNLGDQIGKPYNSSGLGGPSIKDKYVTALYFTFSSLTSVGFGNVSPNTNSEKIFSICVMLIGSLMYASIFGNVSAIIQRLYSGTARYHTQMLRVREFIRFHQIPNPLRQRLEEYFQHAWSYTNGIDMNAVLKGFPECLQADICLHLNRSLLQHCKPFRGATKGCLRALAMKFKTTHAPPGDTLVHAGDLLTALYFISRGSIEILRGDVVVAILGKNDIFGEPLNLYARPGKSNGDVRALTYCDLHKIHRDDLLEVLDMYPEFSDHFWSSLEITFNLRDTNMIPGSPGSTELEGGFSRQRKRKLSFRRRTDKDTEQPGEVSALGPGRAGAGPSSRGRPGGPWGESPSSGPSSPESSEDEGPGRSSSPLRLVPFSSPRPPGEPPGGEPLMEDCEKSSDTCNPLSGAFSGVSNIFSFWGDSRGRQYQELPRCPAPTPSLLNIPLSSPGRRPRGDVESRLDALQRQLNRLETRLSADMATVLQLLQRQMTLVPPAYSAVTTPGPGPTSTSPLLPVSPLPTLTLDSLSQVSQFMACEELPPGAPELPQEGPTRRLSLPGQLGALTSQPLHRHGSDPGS

KEFLHPSKVDLPR [SOR-C13]
modulation of channel activity (hERG): no modulation of channel activity
peptide degradation half-life [1]: about 1 h
time after start of infusion by which steady state was achieved ([2]; 90-min infusion): ≤ 15 min
Peak plasma concentration, Median ([2]; Cohort 3: 1.375 mg/kg, N = 3, 90-min IV infusion, Cycle 1 Day 1): 252.50 ng/mL
Peak plasma concentration, Mean (SD) [2, 3]: 251.03 (75.53) ng/mL
Time to peak plasma concentration, Median [2, 3]: 0.750 h
Time to peak plasma concentration, Median ([2]; Cohort 4: 2.75 mg/kg, N = 6, 90-min IV infusion, Cycle 1 Day 3): 0.750 h
Time to peak plasma concentration, Median ([2]; Cohort 5: 4.13 mg/kg, N = 3, 90-min IV infusion, Cycle 1 Day 10): 0.250 h
Time to peak plasma concentration, Median ([2]; Cohort 6: 6.2 mg/kg, N = 6, 90-min IV infusion, Cycle 1 Day 8): 0.750 h
half-life ([2]; human, iv, patients, 90-min infusion, read-out: elimination half-life (Thalf), estimated overall): < 5 min
AUC(0-t) ([2]; human, iv, 1.375 mg/kg, Cohort 3: 1.375 mg/kg, N = 3, 90-min IV infusion, Cycle 1 Day 1, read-out: AUCtau, Mean (SD)): 256 ng·h/mL
AUC(0-t) ([2]; human, iv, 1.375 mg/kg, Cohort 3: 1.375 mg/kg, N = 3, 90-min IV infusion, Cycle 1 Day 1, read-out: AUCtau, Median): 263 ng·h/mL
Cmax ([2]; human, iv, 1.375 mg/kg, Cohort 3: 1.375 mg/kg, N = 3, 90-min IV infusion, Cycle 1 Day 1, read-out: Peak plasma concentration, Mean (SD)): 244 ng/mL
Tmax ([2]; human, iv, 1.375 mg/kg, Cohort 3: 1.375 mg/kg, N = 3, 90-min IV infusion, Cycle 1 Day 1, read-out: Time to peak plasma concentration, Mean (SD)): 31.6 min
Tmax ([2]; human, iv, 1.375 mg/kg, Cohort 3: 1.375 mg/kg, N = 3, 90-min IV infusion, Cycle 1 Day 1, read-out: Time to peak plasma concentration, Median): 45 min
AUC(0-t) ([2]; human, iv, 1.375 mg/kg, Cohort 3: 1.375 mg/kg, N = 3, 90-min IV infusion, Cycle 1 Day 3, read-out: AUCtau, Mean (SD)): 148 ng·h/mL
AUC(0-t) ([2]; human, iv, 1.375 mg/kg, Cohort 3: 1.375 mg/kg, N = 3, 90-min IV infusion, Cycle 1 Day 3, read-out: AUCtau, Median): 168 ng·h/mL
Cmax ([2]; human, iv, 1.375 mg/kg, Cohort 3: 1.375 mg/kg, N = 3, 90-min IV infusion, Cycle 1 Day 3, read-out: Peak plasma concentration, Mean (SD)): 193 ng/mL
Cmax ([2]; human, iv, 1.375 mg/kg, Cohort 3: 1.375 mg/kg, N = 3, 90-min IV infusion, Cycle 1 Day 3, read-out: Peak plasma concentration, Median): 160 ng/mL
Tmax ([2]; human, iv, 1.375 mg/kg, Cohort 3: 1.375 mg/kg, N = 3, 90-min IV infusion, Cycle 1 Day 3, read-out: Time to peak plasma concentration, Mean (SD)): 11.6 min
Tmax ([2]; human, iv, 1.375 mg/kg, Cohort 3: 1.375 mg/kg, N = 3, 90-min IV infusion, Cycle 1 Day 3, read-out: Time to peak plasma concentration, Median): 15 min
AUC(0-t) ([2]; human, iv, 1.375 mg/kg, Cohort 3: 1.375 mg/kg, N = 3, 90-min IV infusion, Cycle 1 Day 8, read-out: AUCtau, Mean (SD)): 220 ng·h/mL
AUC(0-t) ([2]; human, iv, 1.375 mg/kg, Cohort 3: 1.375 mg/kg, N = 3, 90-min IV infusion, Cycle 1 Day 8, read-out: AUCtau, Median): 230 ng·h/mL
Cmax ([2]; human, iv, 1.375 mg/kg, Cohort 3: 1.375 mg/kg, N = 3, 90-min IV infusion, Cycle 1 Day 8, read-out: Peak plasma concentration, Median): 237 ng/mL
Tmax ([2]; human, iv, 1.375 mg/kg, Cohort 3: 1.375 mg/kg, N = 3, 90-min IV infusion, Cycle 1 Day 8, read-out: Time to peak plasma concentration, Mean (SD)): 47.2 min
AUC(0-t) ([2]; human, iv, 1.375 mg/kg, Cohort 3: 1.375 mg/kg, N = 3, 90-min IV infusion, Cycle 1 Day 10, read-out: AUCtau, Mean (SD)): 184 ng·h/mL
AUC(0-t) ([2]; human, iv, 1.375 mg/kg, Cohort 3: 1.375 mg/kg, N = 3, 90-min IV infusion, Cycle 1 Day 10, read-out: AUCtau, Median): 215 ng·h/mL
Cmax ([2]; human, iv, 1.375 mg/kg, Cohort 3: 1.375 mg/kg, N = 3, 90-min IV infusion, Cycle 1 Day 10, read-out: Peak plasma concentration, Mean (SD)): 224 ng/mL
Cmax ([2]; human, iv, 1.375 mg/kg, Cohort 3: 1.375 mg/kg, N = 3, 90-min IV infusion, Cycle 1 Day 10, read-out: Peak plasma concentration, Median): 181 ng/mL
Tmax ([2]; human, iv, 1.375 mg/kg, Cohort 3: 1.375 mg/kg, N = 3, 90-min IV infusion, Cycle 1 Day 10, read-out: Time to peak plasma concentration, Mean (SD)): 35 min
AUC(0-t) ([2]; human, iv, 2.75 mg/kg, Cohort 4: 2.75 mg/kg, N = 6, 90-min IV infusion, Cycle 1 Day 1, read-out: AUCtau, Mean (SD)): 435 ng·h/mL
AUC(0-t) ([2]; human, iv, 2.75 mg/kg, Cohort 4: 2.75 mg/kg, N = 6, 90-min IV infusion, Cycle 1 Day 1, read-out: AUCtau, Median): 103 ng·h/mL
Cmax ([2]; human, iv, 2.75 mg/kg, Cohort 4: 2.75 mg/kg, N = 6, 90-min IV infusion, Cycle 1 Day 1, read-out: Peak plasma concentration, Mean (SD)): 524 ng/mL
Cmax ([2]; human, iv, 2.75 mg/kg, Cohort 4: 2.75 mg/kg, N = 6, 90-min IV infusion, Cycle 1 Day 1, read-out: Peak plasma concentration, Median): 194 ng/mL
Tmax ([2]; human, iv, 2.75 mg/kg, Cohort 4: 2.75 mg/kg, N = 6, 90-min IV infusion, Cycle 1 Day 1, read-out: Time to peak plasma concentration, Mean (SD)): 39.9 min
Tmax ([2]; human, iv, 2.75 mg/kg, Cohort 4: 2.75 mg/kg, N = 6, 90-min IV infusion, Cycle 1 Day 1, read-out: Time to peak plasma concentration, Median): 45 min
AUC(0-t) ([2]; human, iv, 2.75 mg/kg, Cohort 4: 2.75 mg/kg, N = 6, 90-min IV infusion, Cycle 1 Day 3, read-out: AUCtau, Mean (SD)): 365 ng·h/mL
AUC(0-t) ([2]; human, iv, 2.75 mg/kg, Cohort 4: 2.75 mg/kg, N = 6, 90-min IV infusion, Cycle 1 Day 3, read-out: AUCtau, Median): 250 ng·h/mL
Cmax ([2]; human, iv, 2.75 mg/kg, Cohort 4: 2.75 mg/kg, N = 6, 90-min IV infusion, Cycle 1 Day 3, read-out: Peak plasma concentration, Mean (SD)): 374 ng/mL
Cmax ([2]; human, iv, 2.75 mg/kg, Cohort 4: 2.75 mg/kg, N = 6, 90-min IV infusion, Cycle 1 Day 3, read-out: Peak plasma concentration, Median): 265 ng/mL
Tmax ([2]; human, iv, 2.75 mg/kg, Cohort 4: 2.75 mg/kg, N = 6, 90-min IV infusion, Cycle 1 Day 3, read-out: Time to peak plasma concentration, Mean (SD)): 40.3 min
AUC(0-t) ([2]; human, iv, 2.75 mg/kg, Cohort 4: 2.75 mg/kg, N = 6, 90-min IV infusion, Cycle 1 Day 8, read-out: AUCtau, Mean (SD)): 215 ng·h/mL
AUC(0-t) ([2]; human, iv, 2.75 mg/kg, Cohort 4: 2.75 mg/kg, N = 6, 90-min IV infusion, Cycle 1 Day 8, read-out: AUCtau, Median): 247 ng·h/mL
Cmax ([2]; human, iv, 2.75 mg/kg, Cohort 4: 2.75 mg/kg, N = 6, 90-min IV infusion, Cycle 1 Day 8, read-out: Peak plasma concentration, Mean (SD)): 239 ng/mL
Cmax ([2]; human, iv, 2.75 mg/kg, Cohort 4: 2.75 mg/kg, N = 6, 90-min IV infusion, Cycle 1 Day 8, read-out: Peak plasma concentration, Median): 282 ng/mL
Tmax ([2]; human, iv, 2.75 mg/kg, Cohort 4: 2.75 mg/kg, N = 6, 90-min IV infusion, Cycle 1 Day 8, read-out: Time to peak plasma concentration, Mean (SD)): 21.6 min
Tmax ([2]; human, iv, 2.75 mg/kg, Cohort 4: 2.75 mg/kg, N = 6, 90-min IV infusion, Cycle 1 Day 8, read-out: Time to peak plasma concentration, Median): 15 min
AUC(0-t) ([2]; human, iv, 2.75 mg/kg, Cohort 4: 2.75 mg/kg, N = 6, 90-min IV infusion, Cycle 1 Day 10, read-out: AUCtau, Mean (SD)): 274 ng·h/mL
AUC(0-t) ([2]; human, iv, 2.75 mg/kg, Cohort 4: 2.75 mg/kg, N = 6, 90-min IV infusion, Cycle 1 Day 10, read-out: AUCtau, Median): 192 ng·h/mL
Cmax ([2]; human, iv, 2.75 mg/kg, Cohort 4: 2.75 mg/kg, N = 6, 90-min IV infusion, Cycle 1 Day 10, read-out: Peak plasma concentration, Mean (SD)): 290 ng/mL
Cmax ([2]; human, iv, 2.75 mg/kg, Cohort 4: 2.75 mg/kg, N = 6, 90-min IV infusion, Cycle 1 Day 10, read-out: Peak plasma concentration, Median): 232 ng/mL
Tmax ([2]; human, iv, 2.75 mg/kg, Cohort 4: 2.75 mg/kg, N = 6, 90-min IV infusion, Cycle 1 Day 10, read-out: Time to peak plasma concentration, Mean (SD)): 36.6 min
